From patent US20020068367A1, “Linker and method for solid phase combinatorial synthesis” (priority 2000, published 2002)
“And” between values parts separate entries of the source, which are not always exact repeats. Identical values can stand only once.

Target: T1, fluorescein-streptavidin (Streptomyces avidinii, UniProt P22629)
T1 construct: purchased Calbiochem-Novabiochem Corp., La Jolla, Calif; 189734
Assay: Standard protein-binding assay: fluorescein-streptavidin binding to linker on streptavidin-coated 96-well plates
From the text: Referring to the drawings, and particularly to FIG. 1, generic reactions illustrating two variations of the screening system of the present invention are shown. FIGS. 1a-1d illustrate the generic System 1 reaction wherein a compound comprised of a tether connecting biotin with a chemical compound containing a nitrophenyl group is applied to a streptavidin coated solid phase. The amount of fluorescein-protein complex (c), where the exemplary protein is fluorescein-anti-DNP antibody, bound to the biotin-tether-nitrophenyl complex is characterized by detecting the magnitude of fluorescence emission in each individual well at the completion of the reaction. Similarly, FIG. 1e-1h illustrates the generic System 2 reaction wherein a tether connects 2 biotin groups together and streptavidin is coated on the solid phase. As in the System 1 reaction, the amount of fluorescein-protein complex (g), where the exemplary protein is fluorescein-streptavidin, bound to the biotin-tether-biotin complex is characterized through the detection of fluorescence emissions in each individual well at the completion of the reaction.
In the quantification of the interaction between fluoresceinated-proteins and linkers is characterized by detecting the magnitude of fluorescence emissions in each individual well at the completion of standard protein-binding assay procedures.
A standard protein-binding assay comprises a multi-step process in which strepeavidin pre-treated 96-well plates are exposed to a solution containing linker followed by exposure to a solution containing fluorescein-labeled protein. The 96-well plates are coated with a commercially available streptavidin solution (cat #BPS00100; Xenopore Corp., Hawthorne, N.J.) and then pre-incubated with 300 μl PBS buffer for 10 minutes at room temperature. To complete the pre-incubation process, the PBS buffer is discarded and the plates are further washed five times with water. Once the plate is sufficiently washed, add to the wells 100 μl of pre-mixed binding buffer containing the desired linker, the preparation of which is as described above. After addition of the linker solution, the plate is incubated at 37° C. for one hour. Upon completion of incubation, the linker solution is discarded and the plate is washed with five changes of water. For the fifth step of the assay process, 100 μl of a premixed reaction solution containing 1 M Tris, 0.5 M NaCl and the fluorescein-labeled proteins are added to selected wells of the plate with bound linker. The fluorescein conjugated proteins, anti-dinitrophenyl antibody (rabbit IgG fraction, cat #A-6423) (anti-DNP) and streptavidin (cat #189734) are commercially available from Molecular Probes, Inc., Eugene, Oreg. and Calbiochem Inc., San Diego, Calif. Upon addition of the protein solutions, the plate is further incubated at 37° C. for one hour. Following the incubation period, the reacting solution in each well is discarded and the wells are washed with five changes of 1 M Tris or 30 changes of water. After this final washing step, 250 μl of elution buffer containing 0.5 mM NaOH, methanol and 20 mM EDTA is added to each well and the plate is read using a Spectra MAX Gemini fluorescein plate reader (Molecular Devices Corp., Sunnyvale, Calif.).
Using the standard protein-binding assay described above, linkers 1-7 are evaluated for their ability to bind fluorescein-streptavidin or fluorescein-anti-DNP. The detection of fluorescence emission beyond that of the control would indicate that the fluorescein labeled protein has bound to the corresponding linker. Lack of fluorescence emission would indicate that either the linker or the fluorescein-bound proteins are absent, or that an improper linker was used. This may be interpreted as meaning that the protein of interest, in this exemplary example streptavidin or anti-DNP, “recognizes” the particular library compound being used in the experiment. […]

[1] = Table 5, linker 3 50 nmol, streptavidin-fluorescein 100 pmol
[2] = [Linker] 3 2.5 nmol, fluorescein-streptavidin 100 pmol
[3] = [Linker] 3 5.0 nmol, fluorescein-streptavidin 100 pmol
[4] = [Linker] 3 25.0 nmol, fluorescein-streptavidin 100 pmol
[5] = [Linker] 3 50.0 nmol, fluorescein-streptavidin 100 pmol
[6] = [Linker] 3 250.0 nmol, fluorescein-streptavidin 100 pmol
[7] = [Linker] 3 500.0 nmol, fluorescein-streptavidin 100 pmol
[8] = [Linker] 3 2500.0 nmol, fluorescein-streptavidin 100 pmol
[9] = [Linker] 3 5000.0 nmol, fluorescein-streptavidin 100 pmol
[10] = linker 3 50 nmol, [STREP] 0 pmol (linker only)
[11] = linker 3 50 nmol, [STREP] 0.15 pmol
[12] = linker 3 50 nmol, [STREP] 0.3 pmol
[13] = linker 3 50 nmol, [STREP] 1.0 pmol
[14] = linker 3 50 nmol, [STREP] 3.0 pmol
[15] = linker 3 50 nmol, [STREP] 15.0 pmol
[16] = linker 3 50 nmol, [STREP] 30.0 pmol
[17] = linker 3 50 nmol, [STREP] 45.0 pmol
[18] = linker 3 50 nmol, [STREP] 60.0 pmol

T1 sequence (P22629 25-183): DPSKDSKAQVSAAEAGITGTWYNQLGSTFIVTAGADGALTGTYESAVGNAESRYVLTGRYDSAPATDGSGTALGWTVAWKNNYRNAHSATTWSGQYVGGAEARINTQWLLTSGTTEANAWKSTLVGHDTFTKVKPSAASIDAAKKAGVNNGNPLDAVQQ

## O=C(CCCCCNC(=O)CCCCCNC(=O)CCCCC1SCC2NC(=O)NC21)NCCCCCNC(=O)CCCCCNC(=O)CCCCC1SCC2NC(=O)NC21 (stereo not drawn) [Linker 3]
100-fold increase in linker 3 concentration (0.5 nmol to 50 nmol)
  Increase in fluorescence emission: no significant increase
100-fold increase in linker concentration at much higher concentrations of linker 3
  Increase in fluorescence emission: 2 fold
[1]
  Fluorescence emission, mean of Columns 1-3: 479.29
  Fluorescence emission, sum of Columns 1-2: 987.05
  Fluorescence emission, sum of Columns 1-3: 1437.9
Table 5, linker 3 50 nmol, streptavidin-fluorescein 100 pmol, replicates
  Fluorescence emission: 492.22 and 494.83 and 450.81
Well #1, linker 3 50 nmol, streptavidin-fluorescein 100 pmol
  Detected fluorescence emission: about 500
[2]
  Fluorescence emission, mean of Columns 1-3: 181.30
  Fluorescence emission, sum of Columns 1-2: 406.14
  Fluorescence emission, sum of Columns 1-3: 543.91
[Linker] 3 2.5 nmol, fluorescein-streptavidin 100 pmol, replicates
  Fluorescence emission: 230.68 and 175.46 and 137.77
[3]
  Fluorescence emission, mean of Columns 1-3: 193.80
  Fluorescence emission, sum of Columns 1-2: 467.1
  Fluorescence emission, sum of Columns 1-3: 581.41
[Linker] 3 5.0 nmol, fluorescein-streptavidin 100 pmol, replicates
  Fluorescence emission: 239.14 and 227.96 and 114.31
[4]
  Fluorescence emission, mean of Columns 1-3: 211.91
  Fluorescence emission, sum of Columns 1-2: 469.52
  Fluorescence emission, sum of Columns 1-3: 635.73
[Linker] 3 25.0 nmol, fluorescein-streptavidin 100 pmol, replicates
  Fluorescence emission: 223.84 and 245.68 and 166.21
[5]
  Fluorescence emission, mean of Columns 1-3: 280.99
  Fluorescence emission, sum of Columns 1-2: 502.51
  Fluorescence emission, sum of Columns 1-3: 782.96
[Linker] 3 50.0 nmol, fluorescein-streptavidin 100 pmol, replicates
  Fluorescence emission: 226.70 and 275.81 and 280.45
[6]
  Fluorescence emission, mean of Columns 1-3: 313.49
  Fluorescence emission, sum of Columns 1-2: 597.65
  Fluorescence emission, sum of Columns 1-3: 940.47
[Linker] 3 250.0 nmol, fluorescein-streptavidin 100 pmol, replicates
  Fluorescence emission: 261.21 and 336.44 and 342.82
[7]
  Fluorescence emission, mean of Columns 1-3: 352.86
  Fluorescence emission, sum of Columns 1-2: 703.68
  Fluorescence emission, sum of Columns 1-3: 1058.6
[Linker] 3 500.0 nmol, fluorescein-streptavidin 100 pmol, replicates
  Fluorescence emission: 325.94 and 377.74 and 354.91
[8]
  Fluorescence emission, mean of Columns 1-3: 457.81
  Fluorescence emission, sum of Columns 1-2: 920.68
  Fluorescence emission, sum of Columns 1-3: 1373.4
[Linker] 3 2500.0 nmol, fluorescein-streptavidin 100 pmol, replicates
  Fluorescence emission: 474.19 and 446.49 and 452.76
[9]
  Fluorescence emission, mean of Columns 1-3: 440.22
  Fluorescence emission, sum of Columns 1-2: 883.57
  Fluorescence emission, sum of Columns 1-3: 1320.7
[Linker] 3 5000.0 nmol, fluorescein-streptavidin 100 pmol, replicates
  Fluorescence emission: 447.77 and 435.80 and 437.09
Generic System 2
  Effect on binding capacity of fluorescein-streptavidin: significantly enhances the binding capacity
Linker 3 0.5 nmol, fluorescein-streptavidin 100 pmol
  Fluorescence emission: 239.14
[10]
  Fluorescence emission, mean of Columns 1-3: 150.00 and 142.49
  Fluorescence emission, sum of Columns 1-2: 311.12 and 280.3
  Fluorescence emission, sum of Columns 1-3: 450.01 and 427.46
Linker 3 50 nmol, [STREP] 0 pmol (linker only), replicates
  Fluorescence emission: 158.28 and 152.84 and 138.89 and 156.28 and 124.02 and 147.16
[11]
  Fluorescence emission, mean of Columns 1-3: 147.68
  Fluorescence emission, sum of Columns 1-2: 276.44
  Fluorescence emission, sum of Columns 1-3: 443.03
Linker 3 50 nmol, [STREP] 0.15 pmol, replicates
  Fluorescence emission: 110.75 and 110.57 and 165.87 and 166.59
[12]
  Fluorescence emission, mean of Columns 1-3: 129.73
  Fluorescence emission, sum of Columns 1-2: 226.97
  Fluorescence emission, sum of Columns 1-3: 389.19
Linker 3 50 nmol, [STREP] 0.3 pmol, replicates
  Fluorescence emission: 72.275 and 154.69 and 162.22
[13]
  Fluorescence emission, mean of Columns 1-3: 197.16
  Fluorescence emission, sum of Columns 1-2: 389.28
  Fluorescence emission, sum of Columns 1-3: 591.47
Linker 3 50 nmol, [STREP] 1.0 pmol, replicates
  Fluorescence emission: 167.36 and 221.92 and 202.19
[14]
  Fluorescence emission, mean of Columns 1-3: 253.59
  Fluorescence emission, sum of Columns 1-2: 542.04
  Fluorescence emission, sum of Columns 1-3: 760.78
Linker 3 50 nmol, [STREP] 3.0 pmol, replicates
  Fluorescence emission: 237.61 and 304.43 and 218.74
[15]
  Fluorescence emission, mean of Columns 1-3: 257.02
  Fluorescence emission, sum of Columns 1-2: 482.28
  Fluorescence emission, sum of Columns 1-3: 771.07
Linker 3 50 nmol, [STREP] 15.0 pmol, replicates
  Fluorescence emission: 220.15 and 262.13 and 288.79
[16]
  Fluorescence emission, mean of Columns 1-3: 326.19
  Fluorescence emission, sum of Columns 1-2: 601.80
  Fluorescence emission, sum of Columns 1-3: 978.58
Linker 3 50 nmol, [STREP] 30.0 pmol, replicates
  Fluorescence emission: 395.67 and 206.13 and 376.78
[17]
  Fluorescence emission, mean of Columns 1-3: 474.38
  Fluorescence emission, sum of Columns 1-2: 994.49
  Fluorescence emission, sum of Columns 1-3: 1423.2
Linker 3 50 nmol, [STREP] 45.0 pmol, replicates
  Fluorescence emission: 454.46 and 540.03 and 428.66
[18]
  Fluorescence emission, mean of Columns 1-3: 463.43
  Fluorescence emission, sum of Columns 1-2: 959.13
  Fluorescence emission, sum of Columns 1-3: 1390.3
Linker 3 50 nmol, [STREP] 60.0 pmol, replicates
  Fluorescence emission: 548.75 and 410.38 and 431.15
Linker 3, 100-fold increase in fluorescein-streptavidin concentration (0.15 to 15 pm)
  Increase in fluorescence emission: 2 fold
